{"source": "patent US11844846B2", "about": "“Styrylbenzothiazole derivatives and uses in imaging methods” (Emory University, priority 2018, dated 2023)", "key": {"[1]": {"target": "T1, Lewy bodies in the brain sections from LBD patients (Homo sapiens, UniProt P37840)", "T1 construct": "from tissue; host or cells: brain sections of LBD patients", "test": "autoradiography with [18F]F0502B, human brain slices", "assay_type": "binding", "conditions": "excessive cold compound", "protocol": "[^18F]F0502B was evaluated in vitro and ex vivo binding assays to validate its specificity. α-Syn, Tau and Aβ PFFs were respectively incubated with increasing concentrations of [^18F]F0502B. The binding data were analyzed by curve fitting using nonlinear regression to obtain Kd and Bmax values. The Kd and a Bmax manifested the specific binding affinity with different fibrils. […] Autoradiography with [^18F]F0502B in human brain slices was performed. […] Together, these findings support that F0502B specifically and tightly binds to α-Syn fibrils in the Lewy bodies."}, "α-Syn PFFs": {"target": "α-Syn PFFs (Homo sapiens, UniProt P37840)", "test": "fluorescence spectroscopy titration with α-Syn PFFs", "assay_type": "binding", "conditions": "0.08 μM fibrils, 5 μM small molecule; result in words", "protocol": "(§1) A fluorescent titration assay was conducted. The fluorescent emission intensities were determined with 0.08 μM of various fibrils in the presence of 5 μM of the small molecules.\n(§2) To further investigate the selected compounds binding activities with α-Syn PFFs, fluorescence spectroscopy titrations were conducted to quantitatively measure compounds emission intensity when interacting with different concentrations of α-Syn PFFs. The UV spectrum of each compound was determined and selected for the optimal wavelength to conduct the fluorescence spectroscopic studies."}, "[2]": {"target": "T2, LBs and LNs in DLB and MSA patient brains (Homo sapiens, UniProt P37840)", "T2 construct": "from tissue; host or cells: brain sections of DLB and MSA patients", "test": "ex vivo screening on DLB and MSA patient brain sections", "assay_type": "binding", "source_text": "(§3) Ex vivo screening was extended into human DLB, MSA and AD patient samples. […] Since there are detectable α-Syn aggregates in AD patient brains, these compounds colocalized with p-S129 positive α-Syn inclusions.\n(§4) The ex vivo screening was extended into human DLB, MSA and AD patient samples. Neurodegenerative disease of DLB (dementia with Lewy Bodies) and MSA belongs to synucleinopathies with well-defined Lewy bodies."}, "[3]": {"test": "F0502B in vivo PK study and B/P ratios", "parameters": "species or system mouse", "conditions": "mice, i.v. 5 mg/kg", "protocol": "To ensure that F0502B meets a PET tracer's kinetic criteria with rapid penetration into the brain and swift wash out, an in vivo PK study was performed in mice with i.v. injection of 5 mg/kg of F0502B."}, "[4]": {"system": "senile plaques or NFT in AD", "test": "ex vivo screening on AD patient brain sections", "assay_type": "binding, human", "source_text": "as §3, §4"}, "[5]": {"target": "T3, senile plaques in 5×FAD and 3×Tg mice brain sections (Homo sapiens, UniProt P05067)", "T3 construct": "Aβ-enriched senile plaques; from tissue; host or cells: brain sections of 5×FAD and 3×Tg mice", "T3 sequence (P05067 672-713 limits assumed)": "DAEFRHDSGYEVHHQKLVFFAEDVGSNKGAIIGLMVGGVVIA", "test": "staining of mouse brain sections with senile plaques", "assay_type": "binding"}, "Tau PFFs": {"target": "Tau PFFs (Homo sapiens, UniProt P10636)", "sequence (P10636 whole entry)": "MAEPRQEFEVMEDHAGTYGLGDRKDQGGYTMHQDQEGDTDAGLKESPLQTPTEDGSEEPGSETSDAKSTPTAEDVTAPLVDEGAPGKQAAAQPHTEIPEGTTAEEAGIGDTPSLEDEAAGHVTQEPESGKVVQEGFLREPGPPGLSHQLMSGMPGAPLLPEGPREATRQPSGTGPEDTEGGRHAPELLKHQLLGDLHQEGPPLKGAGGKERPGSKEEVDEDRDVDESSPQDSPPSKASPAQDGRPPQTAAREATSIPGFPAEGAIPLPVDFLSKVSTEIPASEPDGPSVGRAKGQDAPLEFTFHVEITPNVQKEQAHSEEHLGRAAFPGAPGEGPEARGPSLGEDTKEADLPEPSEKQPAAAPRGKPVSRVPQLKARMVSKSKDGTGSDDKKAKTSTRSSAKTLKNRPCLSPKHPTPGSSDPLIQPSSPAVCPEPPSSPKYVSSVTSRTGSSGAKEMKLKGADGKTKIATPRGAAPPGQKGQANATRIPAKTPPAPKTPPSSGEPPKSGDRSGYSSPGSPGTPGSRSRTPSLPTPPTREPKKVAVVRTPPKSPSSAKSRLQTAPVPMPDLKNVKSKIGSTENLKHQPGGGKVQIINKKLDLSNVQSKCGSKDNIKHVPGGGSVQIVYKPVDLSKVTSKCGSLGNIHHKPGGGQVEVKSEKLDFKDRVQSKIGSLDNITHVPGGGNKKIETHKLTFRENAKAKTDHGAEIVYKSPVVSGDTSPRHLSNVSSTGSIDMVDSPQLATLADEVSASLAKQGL", "test": "fluorescence spectroscopy titration with Tau PFFs", "assay_type": "binding", "conditions": "0.08 μM fibrils, 5 μM small molecule; result in words", "protocol": "as §1, §2"}, "α-Syn fibrils": {"target": "α-Syn fibrils (Homo sapiens, UniProt P37840)", "test": "competitive binding assay with α-Syn fibrils and [18F]F0502B", "conditions": "fixed concentrations of α-Syn fibrils and [18F]F0502B, increasing concentrations of cold compound"}, "α-Syn aggregated neurons": {"system": "α-Syn aggregated neurons", "test": "neuronal α-Syn aggregation model, fluorescent microscopy", "assay_type": "cell-based", "conditions": "primary cultured neurons, AAV-α-Syn plus α-Syn PFFs", "source_text": "A series of derivatives were synthesized by including an amino group and a methyl group on benzothiazole to increase the brain permeability and fluorescent signals. The derivatives were subsequently subjected to α-Syn PFFs binding assay and counter-screening with Tau and Aβ PFFs. […] These compounds were screened on the neuronal α-Syn, Tau and Aβ aggregation model for the binding selectivity. Primary cultured neurons were infected with AAV-α-Syn, AAV-Tau FL for 7 days, then treated with α-Syn, Tau or Aβ PFFs. In a few days, the positive compounds were added in the primary neurons with indicated aggregates and analyzed under fluorescent microscopy.\nPrimary cultured neurons were infected with AAV-α-Syn, AAV-Tau FL or AAV-APP fragment virus for 7 days, and then treated with α-Syn, Tau or Aβ PFFs by following the described protocols (Volpicelli-Daley et al., 2014). In a few days, the positive compounds were added in the primary neurons with indicated aggregation."}, "[6]": {"system": "senile plaques and NFT in 5×FAD, 3×Tg and Tau P301S mice", "test": "brain section staining after in vivo administration, senile plaques and NFT", "parameters": "species or system mouse", "protocol": "(§5) […] In 2 h, the mice were sacrificed and stained the mouse brain sections with anti-Aβ, AT8 and p-S129 and ThS, respectively.\n(§6) The p-S129 positive Lewy bodies in A53T PD mice were further confirmed by anti-aggregated α-Syn 5G2 antibody."}, "Aβ PFFs": {"target": "T4, Aβ PFFs (Homo sapiens, UniProt P05067)", "T4 construct": "counter-screening with Tau and Aβ PFFs", "T4 sequence (P05067 672-713 limits assumed)": "as the sequence (P05067 672-713 limits assumed) above", "test": "fluorescence spectroscopy titration with Aβ PFFs", "assay_type": "binding", "conditions": "0.08 μM fibrils, 5 μM small molecule; result in words", "protocol": "as §1, §2"}, "[7]": {"target": "T5, Lewy bodies positive with anti-p-α-Syn S129 in A53T PD mouse model (Homo sapiens, UniProt P37840, A53T)", "T5 construct": "from tissue; host or cells: brain (substantia nigra) of wild-type mice injected with α-Syn A53T virus", "test": "brain section staining after in vivo administration, Lewy bodies", "protocol": "as §5, §6"}, "[8]": {"system": "NFT in Tau P301S and 3×Tg mice brain sections", "test": "staining of mouse brain sections with NFT", "assay_type": "binding", "protocol": "(§7) To further explore whether the positive compounds selectively bind to the Lewy bodies, α-Syn A53T patient-derived mutant virus injected WT mice brain slices were employed. These mice display extensive Lewy bodies in the SN.\n(§8) To further explore whether the positive compounds selectively bind to the Lewy bodies, a α-Syn A53T patient-derived mutant virus was injected into WT mice brain slices. These mice display extensive Lewy bodies in the Substantial nigra (SN). Moreover, P301S mice expressed neurofibrillary tangles (NFT). The Lewy bodies were labeled with p-α-Syn S129 antibody and the positive aggregates were also labeled with the fluorescent signals from the small molecules. […] However, it was worth noting that almost none of the tested compounds were reactive with NFT."}, "[9]": {"target": "T6, Lewy bodies in α-Syn A53T virus injected WT mice brain slices (Homo sapiens, UniProt P37840, A53T)", "T6 construct": "from tissue; host or cells: brain (substantia nigra) of wild-type mice injected with α-Syn A53T virus", "test": "staining of mouse brain slices with Lewy bodies", "assay_type": "binding", "protocol": "as §7, §8"}}, "note": "“Also recorded” adds a separate entry of the source."}
{"smiles": "Cc1cc2nc(/C=C/c3ccc(O)c(Br)c3)sc2cc1N(C)CCOCCF", "note": "[F0502B, (E)-2-bromo-4-(2-(6-((2-(2-fluoroethoxy)ethyl)(methyl)amino)-5-methylbenzo[d]thiazol-2-yl)vinyl)phenol]", "values": [{"measurement": "blocking of [18F]F0502B binding in brain sections", "setting": "[1]", "result": "binding activities were blocked by excessive cold F0502B"}, {"measurement": "binding to α-Syn PFFs by fluorescent emission intensity", "setting": "α-Syn PFFs", "result": "specifically associated with α-Syn fibrils"}, {"measurement": "staining of LBs and LNs", "setting": "[2]", "result": "specifically associated with α-Syn aggregates"}, {"measurement": "C1 rate", "setting": "[3]", "result": "approximately 3.92 L/h/kg"}, {"measurement": "decay in plasma", "setting": "[3]; result in words", "result": "almost completely decayed at 8 h in the plasm"}, {"measurement": "brain entry and accumulation", "setting": "[3]; result in words, 5 mg/kg", "result": "swiftly entered the brain and accumulated in the brain compared to the plasma; also recorded: preferentially enriched in the brain"}, {"measurement": "Kp at 0.5 h", "setting": "[3]; mouse, brain, iv, 0.5 h, read-out: B/P ratio", "result": 4.16}, {"measurement": "Kp at 1 h", "setting": "[3]; mouse, brain, iv, 1 h, read-out: B/P ratio", "result": 13.4}, {"measurement": "Kp at 4 h", "setting": "[3]; mouse, brain, iv, 4 h, read-out: B/P ratio", "result": 26}, {"measurement": "half-life", "setting": "[3]; mouse, plasma, iv, read-out: half-life t1/2 (converted)", "result": 69.6, "unit": "min"}, {"measurement": "staining of senile plaques or NFT (Aβ, AT8 positive aggregates)", "setting": "[4]", "result": "not senile plaques or NFT from 5×FAD, 3×Tg and Tau P301S mice or AD patients"}, {"measurement": "staining of senile plaques", "setting": "[5]", "result": "not senile plaques or NFT from 5×FAD, 3×Tg and Tau P301S mice"}, {"measurement": "binding to Tau PFFs by fluorescent emission intensity", "setting": "Tau PFFs", "result": "barely bound to Aβ or Tau fibrils"}, {"measurement": "displacement of [18F]F0502B from α-Syn fibrils", "setting": "α-Syn fibrils", "result": "selectively stripped off by increasing concentrations of cold F0502B"}, {"measurement": "fluorescent signal in α-Syn aggregated neurons", "setting": "α-Syn aggregated neurons", "result": "specifically associated with α-Syn aggregates"}, {"measurement": "staining of senile plaques and NFT", "setting": "[6]; F0502B 5 mg/kg i.v., 2 h, 5×FAD, 3×Tg, Tau P301S mice", "result": "does not co-stain Aβ or Tau aggregates"}, {"measurement": "staining of senile plaques or NFT by brain generated F0502B", "setting": "[6]; two hours after tail injection of 2 mg/kg of compound 13, AD mouse models", "result": "not senile plaques or NFT in various AD mouse models"}, {"measurement": "binding to Aβ PFFs by fluorescent emission intensity", "setting": "Aβ PFFs", "result": "barely bound to Aβ or Tau fibrils"}, {"measurement": "co-localisation with anti-p-S129 stained Lewy bodies", "setting": "[7]; F0502B 5 mg/kg i.v., mice sacrificed in 2 h, ThS stain on sections", "result": "colocalized with both F0502B and ThS"}, {"measurement": "staining of Lewy body by brain generated F0502B", "setting": "[7]; two hours after tail injection of 2 mg/kg of compound 13, A53T mice", "result": "selectively stained Lewy body in A53T mice"}, {"measurement": "staining of NFT", "setting": "[8]", "result": "not senile plaques or NFT from 5×FAD, 3×Tg and Tau P301S mice"}, {"measurement": "staining of Lewy bodies (p-α-Syn S129 positive)", "setting": "[9]", "result": "specifically associated with α-Syn aggregates"}]}
